From ChEMBL document CHEMBL1201862, “PubChem BioAssay data set” (2004) come the findings set out here.

Some test systems named below: A549; DU-145; HOP-62; HT-29; IGROV-1; MCF7; MDA-MB-231; OVCAR-5; OVCAR-8; SK-MEL-28; SK-MEL-5; SK-OV-3; SNB-19; SR; SW-620; U-251; UACC-257; NCI-H522; SF-539; NCI/ADR-RES.
What all share (experiment): NCI tumour cell line growth inhibition, 48 h

Molecules are shown by their SMILES.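 96-well plates; 48 h exposure; 5 concentrations. Endpoints by linear interpolation between flanking doses. Not reached: highest tested concentration assigned. The concentration for 50% growth inhibition is given as GI50.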 Active and inactive are the calls of the source. Cut-off read from the data, not from the text of the source: active = GI50 up to about 1.1 µM and inactive = higher.

As for `N#Cc1nc(-c2cnccn2)oc1N`, the GI50 in the assay with A549, in the assay on DU-145, in the assay on HOP-62, with HT-29, with IGROV-1 and with MCF7 was > 100 µM (inactive) each time. The GI50 in the assay with MDA-MB-231, in the assay on OVCAR-5, in the assay with OVCAR-8, in the assay with SK-MEL-28, in the assay with SK-MEL-5 and in the assay on SK-OV-3 was > 100 µM (inactive) in each case. For the same compound, the GI50 in the assay with SNB-19, in the assay with SR, in the assay with SW-620, with U-251 and in the assay on UACC-257 was > 100 µM (inactive) each time.

As to `COc1cccc2c1C(=O)c1c(O)c3c(c(O)c1C2=O)C[C@@](O)(C(C)=O)C[C@@H]3OC1OC(C)C(O)C(N)C1Br` (stereo partly drawn), the GI50 in the assay with A549 is 0.0202 µM (active); in the assay with DU-145, 0.0475 µM (active); with HOP-62 it was 0.0147 µM (active); with HT-29, 0.152 µM (active); in the assay on IGROV-1, 0.266 µM (active); with MCF7, 0.00385 µM (active). In addition, the GI50 was 0.233 µM (active) in the assay with MDA-MB-231; 0.0652 µM (active) in the assay with NCI-H522; 0.28 µM (active) with OVCAR-5; 0.0557 µM (active) with OVCAR-8; 0.0583 µM (active) in the assay on SF-539; 0.318 µM (active) with SK-MEL-28. The GI50 in the assay with SK-MEL-5 was 0.0689 µM (active); in the assay with SK-OV-3, 0.045 µM (active); in the assay on SNB-19, 0.0412 µM (active); with SR, 0.00497 µM (active); in the assay with SW-620, 0.0177 µM (active); with U-251, 0.0295 µM (active). In the assay on UACC-257, the GI50 was 0.155 µM (active).

With `NNC(=O)c1c(-c2cccnc2)cnc2ccccc12`, the GI50 in the assay on A549, in the assay on DU-145, in the assay with HOP-62, with HT-29, in the assay on IGROV-1 and with MCF7 was > 100 µM (inactive) throughout. For the same compound, the GI50 with NCI-H522, with NCI/ADR-RES, in the assay on OVCAR-5, in the assay on OVCAR-8, with SF-539 and in the assay with SK-MEL-28 was > 100 µM (inactive) each time. Also, the GI50 is > 100 µM (inactive) in the assay on SK-MEL-5; 4.02 µM (inactive) with SK-OV-3; > 100 µM (inactive) in the assay on SNB-19; > 100 µM (inactive) with SR; > 100 µM (inactive) with SW-620; > 100 µM (inactive) in the assay with U-251. Further, the GI50 in the assay on UACC-257 is > 100 µM (inactive).

In the case of `COC(=O)C(N)CCCC(N)C(=O)NC(C)C(=O)NC(CCC(=O)NCCCNc1ccc([N+](=O)[O-])c2[nH]c3ccccc3c(=O)c12)C(N)=O` (stereo not drawn), the GI50 was 3.13 µM (inactive) in the assay with A549; 6.56 µM (inactive) with DU-145; 7.26 µM (inactive) in the assay on HOP-62; 10.1 µM (inactive) in the assay on MDA-MB-231; 6.07 µM (inactive) in the assay on NCI/ADR-RES; 10.4 µM (inactive) with OVCAR-5. In addition, the GI50 is 3.37 µM (inactive) in the assay on OVCAR-8; 10.2 µM (inactive) in the assay with SK-MEL-28; 11.7 µM (inactive) with SK-MEL-5; 11.4 µM (inactive) in the assay on SK-OV-3; 4 µM (inactive) in the assay on SNB-19; 3.7 µM (inactive) in the assay with SW-620. The results for the GI50 in the assay with U-251 and with UACC-257 were 4.66 µM (inactive) and 8.79 µM (inactive), respectively.

As for `COc1ccc(C2=C(OC(C)=O)c3cccn3-c3ccc(Cl)cc3S2)cc1`, the GI50 is 5.51 µM (inactive) with A549; 9.66 µM (inactive) in the assay with DU-145; 3.97 µM (inactive) in the assay on HOP-62; 3.75 µM (inactive) with HT-29; 6.28 µM (inactive) with IGROV-1; 3.35 µM (inactive) in the assay with MCF7. The GI50 in the assay with MDA-MB-231 is 3.72 µM (inactive); in the assay on OVCAR-8, 6.53 µM (inactive); in the assay on SK-MEL-28, 4.75 µM (inactive); in the assay on SK-MEL-5, 4.93 µM (inactive); in the assay with SK-OV-3, 6.35 µM (inactive); in the assay with SR it was 2.33 µM (inactive). Besides, the GI50 was 4.06 µM (inactive) in the assay with SW-620 and 4.3 µM (inactive) in the assay on UACC-257.
